Test results published in US20190284192A1, “NITROGENOUS MACROCYCLIC COMPOUND, PREPARATION METHOD THEREFOR, PHARMACEUTICAL COMPOSITION AND APPLICATION THEREOF” (LUOXIN PHARMACEUTICAL (SHANGHAI) CO., LTD., priority 2016, published 2019).

Columns and labels:
SU-DHL-6 cells = assay: Inhibitory effect on SU-DHL-6 cells (CellTiter-Glo); type: cell-based; details: Homo sapiens; 72 hours, CellTiter-Glo; read-out: SU-DHL-6
Description: Determinations of the inhibition of the compounds from the above embodiments against SU-DHL-6 cells, the detailed operation steps are as followed:
The 1st Day: Seed the Cells on the Plate
1. The cells were verified that they were in good conditions by observation under microscope;
2. The cells were transferred to a centrifuge tubes, after centrifuged at 1000 rpm for 5 min, the supernatant was discarded;
3. The complete substrate (1640+10% FBS) was added, then blown and patted into single cell suspension, counted by Vi-cell cytometer, the cell suspension was adjusted to desired cell density by the complete medium.
4. The cells were inoculated into a 96 well plate, the cell number was 12000/well at 100 μL per well, 100 μL complete medium was added into the black control;
5. 37° C., 5% CO2 culture overnight.
The 2nd Day: Addition of the Drugs
1. 1000× Compound Plate Preparation
1.1. The test compound was prepared into 10 mM working solution by using DMSO. Then the STS was prepared into 2 mM working solution by using DMSO.
1.2. In the round bottom 96 wells plate, the column 2 of row A to H was added into 60 μL 10 mM test compound (or STS) working solution, columns 3-11 were added into 40 μL DMSO, 20 μL drug solution was pipetted from the column 2 to the column 3, blown and patted for a homogeneous mixture; then 20 μL solution was pipetted from the column 3 to the column 4, blown and patted for a homogeneous mixture, sequently, the drug was diluted by 3 times, 10 concentrations in total. The columns 1 and 12 were supplemented with 40 μL of DMSO.
2. Intermediate plate preparation
A sterile V-bottom 96 deep well plate was used and in each well, 495 μL FBS-free PRMI 1640 medium was added, then 5 μL of the diluted compound (or DMSO) in the 1000× compound plate was pipetted into corresponding position of the V-bottom 96 well plate, blown and patted evenly.
3.1. The cell plate was taken out from the incubator and was observed under microscope. The diluted compound or DMSO in the intermediate plate was added into the cell plate, 11 μL each well.
3.2. The cell was continued to be cultured at 37° C., 5% CO2 for 72 hours.
The 5th Day: CellTiter-Glo Detection of the Cell Activity
1. The CellTiter-Glo buffer and the reaction substrate were taken out from the refrigerator, after balanced to r.t., the buffer was poured into a brown bottle containing the substrate, the bottle was upside down to have the substrate powder sufficientaly dissolved.
2. The cell was observed under microscope; the cell plate was balanced to r.t.
3. The prepared CellTiter-Glo was added into the 96 well plate, at 100 μL/well.
4. The cell plate was placed on a shaker for 10 min, followed by standing at r.t. for 10 min.
5. A white seal film was attached to the bottom of the well plate, and the chemiluminescence signal of each well was detected by the Enspire microplate detector.
6. XLfit was used for data processing. Inhibition rate %=(d-c)/(d-b)×100, while d is the signal value of the DMSO treated group, c is the signal value of the compound treated group, b is signal value of the blank control that only containing medium and DMSO without cells. The data was fitted using the f (x)205[fit=(A+((B−A)/(1+((C/x)^∧D))))] equation in the XLfit software.

MV-4-11 cells = assay: Inhibitory effect on MV-4-11 cells (CellTiter-Glo); type: cell-based; details: Homo sapiens, MV4-11; 72 hours, CellTiter-Glo; read-out: MV-4-11
[1] = Metabolic stability in mouse liver microsomes; type: in vitro ADME; details: mouse liver microsomes 0.5 mg/mL, NADPH, 37° C.; for CLint scaled at 1 µM: pH 7.4, read-out: MLM_CLint
Summary of the method: (§1)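 Compound at 1.5 μM in liver microsome dosing solution (pH 7.4 potassium phosphate, 1.0 mM EDTA) was incubated at 37 °C with NADPH and sampled at 0, 5, 15, 30, 45 min in duplicate, quenched with ACN. LC-MS/MS remaining compound fit to first-order decay; T1/2 = 0.693/K.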

BRD4 (BD2) = molecular target: T1, BRD4 (BD2) (Homo sapiens, UniProt O60885); assay: BRD4 (BD2) bromodomain binding, HTRF; details: 2 h incubation at r.t.
T1 construct: Each member comprises two tandem bromodomains (BD1 and BD2) for recognizing the acetylated lysine residues

[2] = Metabolic stability in human liver microsomes; type: in vitro ADME; details: human liver microsomes 0.5 mg/mL, NADPH, 37° C.; for CLint scaled at 1 µM: pH 7.4, read-out: HLM_CLint
Summary of the method: as §1

| Compound | IC50 (SU-DHL-6 cells) [nM] | IC50 (MV-4-11 cells) [nM] | MLM_T1/2 [1] | CLint scaled at 1 µM [1] [mL/min/kg] | IC50 (BRD4 (BD2)) [nM] | HLM_T1/2 [2] | CLint scaled at 1 µM [2] [mL/min/kg] |
| --- | --- | --- | --- | --- | --- | --- | --- |
| CCS(=O)(=O)Nc1ccc(Oc2ccc(F)cc2F)c(-c2cn(C)c(=O)c3[nH]ccc23)c1 [ABBV-075] | 21 | 7 | 81.11 min | 67.3 | 1 | 1465.60 min | 1.19 |
| CCS(=O)(=O)Cc1ccc2c(c1)-c1cn(C)c(=O)cc1[C@H](C)N=C2c1ccc(F)cc1 [Compound 4026, (S)-10-((ethylsulfone)methyl)-7-(4-fluorophenyl)-2,5-dimethyl-2,5-dihydro-3H-benzo[c]pyrido[3,4-e]azepin-3-ketone] | 10 | 4 | ∞ |  | 1 | ∞ |  |
| CCS(=O)(=O)Cc1ccc2c(c1)-c1cn(C)c(=O)cc1CN=C2c1ccc(F)cc1 [Compound 4009, 7-(4-fluorophenyl)-2-methyl-10-(ethylsulfonemethyl)-2H-benzo[c]pyrido[3,4-e]azepin-3(5H)-ketone] | 83 | 53 | 588.07 min | 9.28 | 5 | 471.41 min | 3.69 |
